Each compound was assayed against BACE2 enzyme ectodomain (Homo sapiens (Human), UniProt Q9Y5Z0) (assay: Fluorescent-peptide cleavage assay for BACE2 inhibition). Settings: assay b): fluorescent-peptide cleavage, pH 4.5 (superscript b).
Assay type: biochemical
Description: b) Fluorescent-Peptide Cleavage Assay for BACE2 Inhibition
BACE2 enzyme ectodomain (derived from plasmid “pET17b-T7-hu proBACE2”) was prepared as described in Ostermann et al., “Crystal Structure of Human BACE2 in Complex with a Hydroxyethylamine Transition-state Inhibitor”, Journal of Molecular Biology 2006, 355, 249-261. The pro-enzyme was stored at 4° C. at a concentration of 70 μg/ml.
A fluorescent peptide with the amino acid sequence WS EVNLD AEFRC-MR121 was synthesised and a stock solution of 1.5 mM in DMSO prepared and stored at −20° C. MR121 is a fluorophore with an excitation wavelength of 630 nm and emission wavelength of 695 nm. The MR121 fluorescence is quenched by the N-terminal tryptophan until the peptide is cleaved by BACE2.
Assays were all made in a Corning 384-well black polystyrene non-binding surface microtitre plate with clear flat bottom and using a Plate:Vision (Perkin Elmer) fluorescence reader. To perform the assay an 80 nM solution of BACE2 was prepared in assay buffer (assay buffer is 100 mM Na-acetate; 20 mM EDTA; 0.05% BSA; pH 4.5) and incubated at room temperature for 1 hour to activate the enzyme. 39 μl of the activated BACE2 was placed in each assay well, followed by 1 μl compound to be tested at an appropriate concentration in 100% DMSO. The plate was then mixed and incubated for 10 minutes at room temperature. To start the assay, 10 μl of a 1.5 μM solution fluorescent peptide in assay buffer was added and the fluorescence intensity in the assay mixture measured at 695 nm with an excitation wavelength of 630 nm for 30 minutes.
The assay readout is the rate of change of fluorescence intensity giving a relative measure of BACE2 activity. Small values correspond to high inhibition and larger values to low inhibition. To determine IC50 values (i.e. the concentration inhibiting the enzyme activity by 50%) of the compound for BACE2, typically, 15 assays were made with a range of concentrations chosen empirically to give low, high and intermediate inhibition of the protease. IC50 values were determined using these assay values generated for a range of inhibitor concentrations and the curve fitting software XLfit (IDBS) using the Sigmoidal Dose-Response Model.

Sequence of BACE2 enzyme ectodomain (Q9Y5Z0 63-473): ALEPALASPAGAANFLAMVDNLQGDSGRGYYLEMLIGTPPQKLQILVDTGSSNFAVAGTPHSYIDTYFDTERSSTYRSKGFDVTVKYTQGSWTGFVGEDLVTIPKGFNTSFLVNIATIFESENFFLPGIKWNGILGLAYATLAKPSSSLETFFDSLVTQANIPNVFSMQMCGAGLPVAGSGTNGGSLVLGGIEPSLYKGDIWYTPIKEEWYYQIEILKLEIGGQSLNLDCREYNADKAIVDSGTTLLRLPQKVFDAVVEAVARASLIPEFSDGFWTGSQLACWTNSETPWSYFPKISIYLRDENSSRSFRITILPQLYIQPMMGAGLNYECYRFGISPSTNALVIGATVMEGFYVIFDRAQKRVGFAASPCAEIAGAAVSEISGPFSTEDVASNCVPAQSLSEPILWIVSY

IC50 | Compound
21 nM | COc1ccc(Cl)cc1Nc1ccc(F)c([C@@]2(C)N=C(N)N(C)C(=O)C2(C)C)c1 [Example 150, (S)-2-Amino-6-(5-(5-chloro-2-methoxyphenylamino)-2-fluorophenyl)-3,5,5,6-tetramethyl-5,6-dihydropyrimidin-4(3H)-one]
100 nM | CC(C)C(=O)Nc1ccc(F)c([C@@]2(C)N=C(N)N(C)C(=O)C2(C)C)c1 [Example 151, N-[3-((S)-2-Amino-1,4,5,5-tetramethyl-6-oxo-1,4,5,6-tetrahydro-pyrimidin-4-yl)-4-fluoro-phenyl]-isobutyramide]
130 nM | CN1C(=O)C(C)(C)[C@@](C)(c2cc(Nc3ccc(C#N)cc3)ccc2F)N=C1N [Example 153, (S)-4-(3-(2-Amino-1,4,5,5-tetramethyl-6-oxo-1,4,5,6-tetrahydropyrimidin-4-yl)-4-fluorophenylamino)benzonitrile]
35 nM | COc1cc(Cl)c(C)cc1Nc1ccc(F)c([C@@]2(C)N=C(N)N(C)C(=O)C2(C)C)c1 [Example 154, (S)-2-Amino-6-(5-(4-chloro-2-methoxy-5-methylphenylamino)-2-fluorophenyl)-3,5,5,6-tetramethyl-5,6-dihydropyrimidin-4(3H)-one]
13 nM | CN1C(=O)C(C)(C)[C@@](C)(c2cc(Nc3ccc(C#N)cc3OC(F)(F)F)ccc2F)N=C1N [Example 161, (S)-4-(3-(2-Amino-1,4,5,5-tetramethyl-6-oxo-1,4,5,6-tetrahydropyrimidin-4-yl)-4-fluorophenylamino)-3-(trifluoromethoxy)benzonitrile]
120 nM | CN1C(=O)C(C)(C)[C@@](C)(c2cc(NC3CCCC3C#N)ccc2F)N=C1N (stereo partly drawn) [Example 162, 2-[3-((S)-2-Amino-1,4,5,5-tetramethyl-6-oxo-1,4,5,6-tetrahydro-pyrimidin-4-yl)-4-fluoro-phenylamino]-cyclopentanecarbonitrile]
62 nM | CN1C(=O)C(C)(C)[C@@](C)(c2cc(Nc3ccc(C#N)cc3C(F)(F)F)ccc2F)N=C1N [Example 163, (S)-4-(3-(2-Amino-1,4,5,5-tetramethyl-6-oxo-1,4,5,6-tetrahydropyrimidin-4-yl)-4-fluorophenylamino)-3-(trifluoromethyl)benzonitrile]
1090 nM | CN1C(=O)C(C)(C)[C@@](C)(c2cc(Nc3ccc(S(C)(=O)=O)cc3)ccc2F)N=C1N [Example 164, (S)-2-Amino-6-(2-fluoro-5-(4-(methylsulfonyl)phenylamino)phenyl)-3,5,5,6-tetramethyl-5,6-dihydropyrimidin-4(3H)-one]
39 nM | CN1C(=O)C(C)(C)[C@@](C)(c2cc(Nc3cc(C#N)ccc3F)ccc2F)N=C1N [Example 165, (S)-3-(3-(2-Amino-1,4,5,5-tetramethyl-6-oxo-1,4,5,6-tetrahydropyrimidin-4-yl)-4-fluorophenylamino)-4-fluorobenzonitrile]
80 nM | CN1C(=O)C(C)(C)[C@@](C)(c2cc(Nc3cc(F)c(C#N)cc3F)ccc2F)N=C1N [Example 166, (S)-4-(3-(2-Amino-1,4,5,5-tetramethyl-6-oxo-1,4,5,6-tetrahydropyrimidin-4-yl)-4-fluorophenylamino)-2,5-difluorobenzonitrile]
73 nM | CN1C(=O)C(C)(C)[C@@](C)(c2cc(Nc3cccc(C#N)c3)ccc2F)N=C1N [Example 167, 3-[3-((S)-2-Amino-1,4,5,5-tetramethyl-6-oxo-1,4,5,6-tetrahydro-pyrimidin-4-yl)-4-fluoro-phenylamino]-benzonitrile]
14 nM | CN1C(=O)C(C)(C)[C@@](C)(c2cc(Nc3ccc(C#N)cc3Cl)ccc2F)N=C1N [Example 168, 4-[3-((S)-2-Amino-1,4,5,5-tetramethyl-6-oxo-1,4,5,6-tetrahydro-pyrimidin-4-yl)-4-fluoro-phenylamino]-3-chloro-benzonitrile]
180 nM | Cc1ccc(Nc2ccc(F)c([C@@]3(C)N=C(N)N(C)C(=O)C3(C)C)c2)cc1C#N [Example 169, 5-[3-((S)-2-Amino-1,4,5,5-tetramethyl-6-oxo-1,4,5,6-tetrahydro-pyrimidin-4-yl)-4-fluoro-phenylamino]-2-methyl-benzonitrile]
140 nM | COc1ccc(Nc2ccc(F)c([C@@]3(C)N=C(N)N(C)C(=O)C3(C)C)c2)cn1 [Example 170, (S)-2-Amino-6-(2-fluoro-5-(6-methoxypyridin-3-ylamino)phenyl)-3,5,5,6-tetramethyl-5,6-dihydropyrimidin-4(3H)-one]
1800 nM | Cc1ccc(Nc2ccc(F)c([C@@]3(C)N=C(N)N(C)C(=O)C3(C)C)c2)cn1 [Example 171, (S)-2-Amino-6-(2-fluoro-5-(6-methylpyridin-3-ylamino)phenyl)-3,5,5,6-tetramethyl-5,6-dihydropyrimidin-4(3H)-one]

Each compound was assayed against endogenous cellular BACE2 in the Ins1e rat cell line (Rattus norvegicus (Rat), UniProt Q6IE75) (assay: Assay for BACE inhibition by measuring cellular TMEM27 cleavage (ELISA of shed hTMEM27 from INS-TMEM27 cells)). Settings: assay a): cellular TMEM27 cleavage, INS-TMEM27 cells (superscript a).
Sequence of endogenous cellular BACE2 in the Ins1e rat cell line (Q6IE75 63-514): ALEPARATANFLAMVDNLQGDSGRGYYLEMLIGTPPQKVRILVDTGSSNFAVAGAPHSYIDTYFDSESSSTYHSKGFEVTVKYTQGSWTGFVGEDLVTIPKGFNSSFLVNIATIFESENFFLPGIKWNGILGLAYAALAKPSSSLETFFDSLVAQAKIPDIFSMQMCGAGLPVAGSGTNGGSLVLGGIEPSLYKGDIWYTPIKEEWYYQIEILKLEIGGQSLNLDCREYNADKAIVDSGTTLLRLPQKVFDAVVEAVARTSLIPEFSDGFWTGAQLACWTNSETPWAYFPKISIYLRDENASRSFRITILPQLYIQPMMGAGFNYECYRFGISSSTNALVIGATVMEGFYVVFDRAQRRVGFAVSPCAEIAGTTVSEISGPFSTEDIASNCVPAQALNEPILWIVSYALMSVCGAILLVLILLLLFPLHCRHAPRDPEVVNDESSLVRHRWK
Assay type: cell-based
In short: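 Shed human TMEM27 is quantified by ELISA in medium of TetOn INS1e cells after 46 h at 37 °C. Compound is dosed across a concentration range, followed 2 h later by doxycycline induction at 500 ng/ml. Each concentration's readout is curve-fitted to give the EC50.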

IC50 | Compound
257 nM | Cc1cc(C)c(Nc2ccc(F)c([C@@]3(C)N=C(N)N(C)C(=O)C3(C)C)c2)cc1C [Example 146, (S)-2-Amino-6-(2-fluoro-5-(2,4,5-trimethylphenylamino)phenyl)-3,5,5,6-tetramethyl-5,6-dihydropyrimidin-4(3H)-one]
269 nM | CN1C(=O)C(C)(C)[C@@](C)(c2cc(NC(=O)C3(O)CCC3)ccc2F)N=C1N [Example 147, (S)—N-(3-(2-amino-1,4,5,5-tetramethyl-6-oxo-1,4,5,6-tetrahydropyrimidin-4-yl)-4-fluorophenyl)-1-hydroxycyclobutanecarboxamide]
497 nM | CN1C(=O)C(C)(C)[C@@](C)(c2cc(NC(=O)C(O)(C(F)(F)F)C(F)(F)F)ccc2F)N=C1N [Example 148, (S)—N-(3-(2-amino-1,4,5,5-tetramethyl-6-oxo-1,4,5,6-tetrahydropyrimidin-4-yl)-4-fluorophenyl)-3,3,3-trifluoro-2-hydroxy-2-(trifluoromethyl)propanamide]
81 nM | Cc1cc(Nc2ccc(F)c([C@@]3(C)N=C(N)N(C)C(=O)C3(C)C)c2)ccc1C#N [Example 149, (S)-4-(3-(2-Amino-1,4,5,5-tetramethyl-6-oxo-1,4,5,6-tetrahydropyrimidin-4-yl)-4-fluorophenylamino)-2-methylbenzonitrile]
2 nM | CN1C(=O)C(C)(C)[C@@](C)(c2cc(Nc3ccc(C#N)cc3F)ccc2F)N=C1N [Example 152, (S)-4-(3-(2-Amino-1,4,5,5-tetramethyl-6-oxo-1,4,5,6-tetrahydropyrimidin-4-yl)-4-fluorophenylamino)-3-fluorobenzonitrile]
123 nM | C[C@@H]1CC(Nc2ccc(F)c([C@@]3(C)N=C(N)N(C)C(=O)C3(C)C)c2)C[C@H](C)O1 (stereo partly drawn) [Example 155, (6S)-2-Amino-6-(5-((2R,6S)-2,6-dimethyltetrahydro-2H-pyran-4-ylamino)-2-fluorophenyl)-3,5,5,6-tetramethyl-5,6-dihydropyrimidin-4(3H)-one]
1210 nM | CN1C(=O)C(C)(C)[C@@](C)(c2cc(Nc3cccc4c3OC(C)(C)C4)ccc2F)N=C1N [Example 156, (S)-2-Amino-6-(5-(2,2-dimethyl-2,3-dihydrobenzofuran-7-ylamino)-2-fluorophenyl)-3,5,5,6-tetramethyl-5,6-dihydropyrimidin-4(3H)-one]
654 nM | CN1C(=O)C(C)(C)[C@@](C)(c2cc(Nc3cccc4c3OCC4)ccc2F)N=C1N [Example 157, (S)-2-Amino-6-(5-(2,3-dihydrobenzofuran-7-ylamino)-2-fluorophenyl)-3,5,5,6-tetramethyl-5,6-dihydropyrimidin-4(3H)-one]
298 nM | CN1C(=O)C(C)(C)[C@@](C)(c2cc(NC3CC(C)(C)CC3O)ccc2F)N=C1N (stereo partly drawn) [Example 158, (S)-2-Amino-6-[2-fluoro-5-(2-hydroxy-4,4-dimethyl-cyclopentylamino)-phenyl]-3,5,5,6-tetramethyl-5,6-dihydro-3H-pyrimidin-4-one]
24 nM | Cc1nc(C(C)Nc2ccc(F)c([C@@]3(C)N=C(N)N(C)C(=O)C3(C)C)c2)c(C(F)(F)F)o1 (stereo partly drawn) [Example 159, (S)-2-Amino-6-{2-fluoro-5-[1-(2-methyl-5-trifluoromethyl-oxazol-4-yl)-ethylamino]-phenyl}-3,5,5,6-tetramethyl-5,6-dihydro-3H-pyrimidin-4-one]
6 nM | CN1C(=O)C(C)(C)[C@@](C)(c2cc(NCc3nn(C(F)F)cc3Cl)ccc2F)N=C1N [Example 160, (S)-2-Amino-6-{5-[(4-chloro-1-difluoromethyl-1H-pyrazol-3-ylmethyl)-amino]-2-fluoro-phenyl}-3,5,5,6-tetramethyl-5,6-dihydro-3H-pyrimidin-4-one]

From patent US8815881B2 (Hoffmann-La Roche Inc., priority 2010, dated 2014)
